Data: patent US20240124938A1, “VISUAL DETECTION OF PBD INDUCED DNA CROSSLINKS” (INSERM (INSTITUT NATIONAL DE LA SANTÉ ET DE LA RECHERCHE …, priority 2019, published 2024)

Test system: DNA crosslinks in mouse bone marrow cells
Assay: Detection of SJG-136-click in mouse bone marrow by confocal microscopy (click labelling of DNA crosslinks)
Assay type: in vivo
Settings: mice treated 0.3 mg/kg, 45 minutes; for click-647 (Alexa Fluor 647 azide) signal observed by confocal imaging: sites of reticulation (DNA crosslinks): 10 μm bone marrow sections of femur/tibia, click-it solution with Alexa Fluor 647 azide, FIG. 1 middle column
Description: FIG. 1 represents confocal microscopy observations of samples of mice bone marrow in mouse femur tissues treated with 0.3 mg·kg^−1 of either SJG136 (top line of images) (corresponding to a compound outside of the invention) or SJG136-click (bottom line of images) (corresponding to the compound of formula (IV) according to the invention). The nucleus of the sample's cells are identified on the left column by DAPI staining. The middle column represents images obtained by exposing clickable 647 fluorophore (Alexa Fluor™ 647 azide, sold by the company Thermo Fisher) to the samples treated with SJG136 or SJG136-click to detect the SJG136 or SJG136-click. On the right column, observations from the left and middle column are merged. Some of the observable DNA crosslinking are indicated by white arrows in the middle and right cases of the bottom line.
Mice were treated with a compound of formula (IV) according to the invention (0,3 mg/kg) during 45 minutes.
The bone(s) (i.e. femur and tibia) were dissected from the mouse and surrounding muscle(s) were removed. Said bone(s) were immediately fixed with 4% ice-cold PFA solution for 24 hours at 4° C. in a 15 mL conical tube. The bone sample(s) were then washed three times with PBS. Each wash was carried out for 5 minutes at 4° C. with 7 mL of PBS under constant agitation.
A DCAL solution, containing 0.5 M of EDTA, was prepared by dissolving 186.1 g of EDTA in 800 mL of ddH2O with the addition of about 20 g of NaOH pellets to bring the mixture to a pH in the range of 7.4-7.6 by continuous stirring. The volume is adjusted to 1 L and the solution is filtered on a 0.5 μm filter.
A cryoprotectant (CPT) solution (1×) was also prepared by dissolving 200 g of sucrose and 20 g of polyvinylpyrrolidone (PVP) in 700 mL of PBS under constant stirring by a magnetic stirrer. The volume was then adjusted to 1 L and the solution was mixed until a homogeneous solution was obtained. […]

SMILES | click-647 (Alexa Fluor 647 azide) signal observed by confocal imaging: sites of reticulation (DNA crosslinks) | localisation of click-647 light spots relative to DAPI-stained nuclei (merged image) (bone marrow sections, merge of DAPI and click-647 images, FIG. 1 right column)
C#CCC(COc1cc2c(cc1OC)C(=O)N1CC(=C)CC1C=N2)COc1cc2c(cc1OC)C(=O)N1CC(=C)CC1C=N2 (stereo not drawn) [SJG136-click, 8,8′-((2-(prop-2-yn-1-yl)propane-1,3-diyl)bis(oxy))bis(7-methoxy-2-methylene-2,3-dihydro-1H-benzo[e]pyrrolo[1,2-a][1,4]diazepin-5(11aH)-one)] | several light spots, clearly distinct one from the others | all the light spots observed are within the nucleus of cells
C=C1C[C@H]2C=Nc3cc(OCCCOc4cc5c(cc4OC)C(=O)N4CC(=C)C[C@H]4C=N5)c(OC)cc3C(=O)N2C1 [SJG136, reference compound] | nothing is visible | –
